Measurements reported in ChEMBL document CHEMBL1157603, “Structural insights into the design of small molecule inhibitors that selectively antagonize Mcl-1” (J Med Chem, 2010).

What was measured:
Bcl-2-like protein 1 [1] = biological target: T1, Bcl-2-like protein 1 (Homo sapiens, UniProt Q07817); test: Displacement of fluorescein-labeled Bak-BH3 peptide from human Bcl-XL by fluorescence polarization assay
Bcl-2-like protein 1 [2] = biological target: T1, Bcl-2-like protein 1; test: Binding affinity to human Bcl-XL by isothermal titration calorimetry
[3] = biological target: T2, Induced myeloid leukemia cell differentiation protein Mcl-1 (Homo sapiens, UniProt Q07820); test: Displacement of fluorescein-labeled Bak-BH3 peptide from human Mcl1 by fluorescence polarization assay
T2 sequence (Q07820 whole entry): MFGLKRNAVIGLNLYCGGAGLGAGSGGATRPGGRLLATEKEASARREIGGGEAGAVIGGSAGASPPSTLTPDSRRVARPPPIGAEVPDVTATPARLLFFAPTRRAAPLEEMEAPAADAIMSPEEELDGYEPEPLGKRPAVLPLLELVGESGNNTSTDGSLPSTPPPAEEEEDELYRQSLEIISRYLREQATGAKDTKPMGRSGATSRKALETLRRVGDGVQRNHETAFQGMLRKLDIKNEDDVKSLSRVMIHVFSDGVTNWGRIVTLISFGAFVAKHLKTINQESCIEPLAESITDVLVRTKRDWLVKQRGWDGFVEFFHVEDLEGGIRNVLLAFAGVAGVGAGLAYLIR

[4] = biological target: T2, Induced myeloid leukemia cell differentiation protein Mcl-1; test: Binding affinity to human Mcl1 by isothermal titration calorimetry

T1 sequence (Q07817 whole entry): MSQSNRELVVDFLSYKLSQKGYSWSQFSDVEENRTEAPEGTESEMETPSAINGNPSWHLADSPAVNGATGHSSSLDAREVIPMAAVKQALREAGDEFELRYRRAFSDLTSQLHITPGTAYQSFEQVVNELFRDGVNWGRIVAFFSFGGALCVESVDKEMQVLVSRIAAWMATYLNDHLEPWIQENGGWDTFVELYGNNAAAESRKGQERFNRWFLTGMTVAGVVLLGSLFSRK

Row | Ki (Bcl-2-like protein 1 [1]) [µM] | Kd (Bcl-2-like protein 1 [2]) [µM] | Ki [3] [µM] | Kd [4] [µM] | Structure (SMILES)
1 | > 100 | > 750 | 8 | 10 | COc1ccc(-c2ccc(/C=C3\SC(=S)N([C@@H](Cc4ccccc4)C(=O)O)C3=O)cn2)cc1OC
2 | 10 | 8.7 | 44 | 84 | CC(C)C(C(=O)O)N1C(=O)/C(=C/c2ccc(Br)cc2)SC1=S (configuration not stated)
3 | 3.7 | 3.4 | 6.9 | 0.25 | COc1cccc(-c2ccc(/C=C3\SC(=S)N([C@@H](Cc4ccccc4)C(=O)O)C3=O)cn2)c1OC
